# Test results as given in patent US9255090B2, “Heterocyclyl derivatives and their use as prostaglandin D2 receptor modulators” (Actelion Pharmaceuticals Ltd., priority 2012, dated 2016).
# pIC50: −log10 of the molar value.
# Target: hCRTH2 receptor (Homo sapiens (Human), UniProt Q9Y5Y4)
# Assay: hCRTH2 receptor membranes radioligand (3H-PGD2) displacement assay
# Assay type: binding
# Details: 3H-PGD2 radioligand displacement, HEK293-hCRTH2 membranes
# Summary of the method: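 HEK293-hCRTH2 membranes, 20 μg/well; 3H-PGD2 added at 2.5 nM; binding buffer 50 mM Tris, 10 mM MnCl2, 1 mM EDTA, pH 7.0; 90 min RT; GF/C filtration, scintillation count. Nonspecific binding: PGD2 at […].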
# Sequence of hCRTH2 receptor (Q9Y5Y4 whole entry): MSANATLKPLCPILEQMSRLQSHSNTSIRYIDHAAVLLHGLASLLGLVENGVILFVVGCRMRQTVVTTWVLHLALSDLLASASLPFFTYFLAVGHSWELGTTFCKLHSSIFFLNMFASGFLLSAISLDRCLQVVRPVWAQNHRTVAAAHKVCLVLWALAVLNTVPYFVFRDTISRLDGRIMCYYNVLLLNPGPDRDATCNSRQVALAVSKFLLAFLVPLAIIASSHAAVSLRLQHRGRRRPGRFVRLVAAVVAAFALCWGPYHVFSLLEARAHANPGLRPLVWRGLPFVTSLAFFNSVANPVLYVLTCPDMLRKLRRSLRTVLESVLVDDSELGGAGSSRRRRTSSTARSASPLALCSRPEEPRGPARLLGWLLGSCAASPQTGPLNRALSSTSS
row,SMILES,pIC50
1,"COc1ccc(CC(=O)O)cc1-c1ccc(F)c2c1CN(C(=O)OC(C)C)CC2 [Example 143, 8-(5-Carboxymethyl-2-methoxy-phenyl)-5-fluoro-3,4-dihydro-1H-isoquinoline-2-carboxylic acid isopropyl ester]",6.46
2,"O=C(O)COc1cc(Cl)cc(-c2ccc(F)c3c2CN(C(=O)OCc2ccccc2)CC3)c1 [Example 144, 8-(3-Carboxymethoxy-5-chloro-phenyl)-5-fluoro-3,4-dihydro-1H-isoquinoline-2-carboxylic acid benzyl ester]",7.06
3,"O=C(O)COc1ccc(Cl)cc1-c1ccc(F)c2c1CN(C(=O)OCc1ccccc1)CC2 [Example 145, 8-(2-Carboxymethoxy-5-chloro-phenyl)-5-fluoro-3,4-dihydro-1H-isoquinoline-2-carboxylic acid benzyl ester]",6.37
4,"COc1ccc(CC(=O)O)cc1-c1ccc(F)c2c1CN(C(=O)OCc1ccnn1C)CC2 [Example 148, 8-(5-Carboxymethyl-2-methoxy-phenyl)-5-fluoro-3,4-dihydro-1H-isoquinoline-2-carboxylic acid 2-methyl-2H-pyrazol-3-ylmethyl ester]",7.29
5,"COc1ccc(CC(=O)O)cc1-c1ccc(F)c2c1CN(C(=O)OCc1cc(C)nn1C)CC2 [Example 149, 8-(5-Carboxymethyl-2-methoxy-phenyl)-5-fluoro-3,4-dihydro-1H-isoquinoline-2-carboxylic acid 2,5-dimethyl-2H-pyrazol-3-ylmethyl ester]",8.16
6,"COc1ccc(CC(=O)O)cc1-c1ccc(F)c2c1CN(C(=O)OCc1csc(C)n1)CC2 [Example 150, 8-(5-Carboxymethyl-2-methoxy-phenyl)-5-fluoro-3,4-dihydro-1H-isoquinoline-2-carboxylic acid 2-methyl-thiazol-4-ylmethyl ester]",8.15
7,"COc1ccc(CC(=O)O)cc1-c1ccc(F)c2c1CN(C(=O)OCc1cnc(C)s1)CC2 [Example 151, 8-(5-Carboxymethyl-2-methoxy-phenyl)-5-fluoro-3,4-dihydro-1H-isoquinoline-2-carboxylic acid 2-methyl-thiazol-5-ylmethyl ester]",8.24
8,"COc1ccc(CC(=O)O)cc1-c1ccc(F)c2c1CN(C(=O)OCc1cncnc1)CC2 [Example 152, 8-(5-Carboxymethyl-2-methoxy-phenyl)-5-fluoro-3,4-dihydro-1H-isoquinoline-2-carboxylic acid pyrimidin-5-ylmethyl ester]",7.47
9,"COc1ccc(CC(=O)O)cc1-c1ccc(F)c2c1CN(C(=O)OCCc1scnc1C)CC2 [Example 153, 8-(5-Carboxymethyl-2-methoxy-phenyl)-5-fluoro-3,4-dihydro-1H-isoquinoline-2-carboxylic acid 2-(4-methyl-thiazol-5-yl)-ethyl ester]",7.39
10,"COc1ccc(CC(=O)O)cc1-c1ccc(C)c2c1CN(C(=O)OCc1ccccc1)CC2 [Example 155, 8-(5-Carboxymethyl-2-methoxy-phenyl)-5-methyl-3,4-dihydro-1H-isoquinoline-2-carboxylic acid benzyl ester]",7.33
11,"COc1ccc(CC(=O)O)cc1-c1ccc(OC)c2c1CN(C(=O)OCc1ccccc1)CC2 [Example 156, 8-(5-Carboxymethyl-2-methoxy-phenyl)-5-methoxy-3,4-dihydro-1H-isoquinoline-2-carboxylic acid benzyl ester]",6.60
12,"COc1ccc(CC(=O)O)cc1-c1ccc(C(F)(F)F)c2c1CN(C(=O)OCc1ccccc1)CC2 [Example 158, 8-(5-Carboxymethyl-2-methoxy-phenyl)-5-trifluoromethyl-3,4-dihydro-1H-isoquinoline-2-carboxylic acid benzyl ester]",7.17
13,"COc1ccc(CC(=O)O)cc1-c1ccc(F)c2c1CCN(C(=O)OCc1ccccc1)C2 [Example 159, 5-(5-Carboxymethyl-2-methoxy-phenyl)-8-fluoro-3,4-dihydro-1H-isoquinoline-2-carboxylic acid benzyl ester]",6.23
14,"O=C(O)COc1ccc(OC(F)(F)F)c(-c2ccc(F)c3c2CN(C(=O)[C@@H]2C[C@H]2c2ccccc2)CC3)c1 [Example 160, {3-[5-Fluoro-2-((1R,2R)-2-phenyl-cyclopropanecarbonyl)-1,2,3,4-tetrahydro-isoquinolin-8-yl]-4-trifluoromethoxy-phenoxy}-acetic acid]",9.17
15,"CC(C)Oc1ccc(OCC(=O)O)cc1-c1ccc(F)c2c1CN(C(=O)[C@@H]1C[C@H]1c1ccccc1)CC2 [Example 161, {3-[5-Fluoro-2-((1R,2R)-2-phenyl-cyclopropanecarbonyl)-1,2,3,4-tetrahydro-isoquinolin-8-yl]-4-isopropoxy-phenoxy}-acetic acid]",8.86
16,"O=C(O)Cc1ccc(-c2ccc(F)c3c2CN(C(=O)OCc2ccccc2)CC3)c(F)c1 [Example 164, 8-(4-Carboxymethyl-2-fluoro-phenyl)-5-fluoro-3,4-dihydro-1H-isoquinoline-2-carboxylic acid benzyl ester]",7.33
17,"O=C(O)Cc1ccc(-c2ccc(F)c3c2CN(C(=O)OCc2ccccc2)CC3)c(Cl)c1 [Example 165, 8-(4-Carboxymethyl-2-chloro-phenyl)-5-fluoro-3,4-dihydro-1H-isoquinoline-2-carboxylic acid benzyl ester]",7.58

row,SMILES,pIC50
1,"O=C(O)Cc1cc2c(c(-c3ccc(F)c4c3CN(C(=O)OCc3ccccc3)CC4)c1)OCO2 [Example 167, 8-(6-Carboxymethyl-benzo[1,3]dioxol-4-yl)-5-fluoro-3,4-dihydro-1H-isoquinoline-2-carboxylic acid benzyl ester]",7.81
2,"COc1ccc(CC(=O)O)cc1-c1cccc2c1CN(C(=O)OCc1ccccc1)CC2 [Example 170, 8-(5-Carboxymethyl-2-methoxy-phenyl)-3,4-dihydro-1H-isoquinoline-2-carboxylic acid benzyl ester]",6.96
3,"O=C(O)COc1ccc(-c2ccc(F)c3c2CN(C(=O)OCc2ccccc2)CC3)cc1 [Example 172, 8-(4-Carboxymethoxy-phenyl)-5-fluoro-3,4-dihydro-1H-isoquinoline-2-carboxylic acid benzyl ester]",6.68
4,"O=C(O)COc1ccc(F)cc1-c1cccc2c1CN(C(=O)OCc1ccccc1)CC2 [Example 173, 8-(2-Carboxymethoxy-5-fluoro-phenyl)-3,4-dihydro-1H-isoquinoline-2-carboxylic acid benzyl ester]",7.04
5,"O=C(O)CCCOc1ccc(F)cc1-c1cccc2c1CN(C(=O)OCc1ccccc1)CC2 [Example 174, 8-[2-(3-Carboxy-propoxy)-5-fluoro-phenyl]-3,4-dihydro-1H-isoquinoline-2-carboxylic acid benzyl ester]",6.54
6,"O=C(O)COc1cccc(-c2ccc(F)c3c2CN(C(=O)OCc2ccccc2)CC3)c1 [Example 175, 8-(3-Carboxymethoxy-phenyl)-5-fluoro-3,4-dihydro-1H-isoquinoline-2-carboxylic acid benzyl ester]",6.93
7,"O=C(O)COc1ccc(Cl)c(-c2ccc(F)c3c2CN(C(=O)OCc2ccccc2)CC3)c1 [Example 176, 8-(5-Carboxymethoxy-2-chloro-phenyl)-5-fluoro-3,4-dihydro-1H-isoquinoline-2-carboxylic acid benzyl ester]",7.87
8,"O=C(O)COc1ccc(Cl)c(-c2ccc(Cl)c3c2CN(C(=O)OCc2ccccc2)CC3)c1 [Example 178, 8-(5-Carboxymethoxy-2-chloro-phenyl)-5-chloro-3,4-dihydro-1H-isoquinoline-2-carboxylic acid benzyl ester]",7.76
9,"Cc1ccc(-c2cc(OCC(=O)O)ccc2Cl)c2c1CCN(C(=O)OCc1ccccc1)C2 [Example 179, 8-(5-Carboxymethoxy-2-chloro-phenyl)-5-methyl-3,4-dihydro-1H-isoquinoline-2-carboxylic acid benzyl ester]",6.60
10,"O=C(O)COc1ccc(Cl)c(-c2ccc(C(F)(F)F)c3c2CN(C(=O)OCc2ccccc2)CC3)c1 [Example 180, 8-(5-Carboxymethoxy-2-chloro-phenyl)-5-trifluoromethyl-3,4-dihydro-1H-isoquinoline-2-carboxylic acid benzyl ester]",6.68
11,"O=C(O)COc1ccc(Cl)c(-c2cccc3c2CN(C(=O)OCc2ccccc2)CC3)c1 [Example 181, 8-(5-Carboxymethoxy-2-chloro-phenyl)-3,4-dihydro-1H-isoquinoline-2-carboxylic acid benzyl ester]",6.91
12,"COc1cc(CC(=O)O)ccc1-c1ccc(F)c2c1CN(C(=O)[C@@H]1C[C@H]1c1ccccc1)CC2 [Example 184, {4-[5-Fluoro-2-((1R,2R)-2-phenyl-cyclopropanecarbonyl)-1,2,3,4-tetrahydro-isoquinolin-8-yl]-3-methoxy-phenyl}-acetic acid]",9.05
13,"COc1cc(CC(=O)O)ccc1-c1ccc(F)c2c1CN(C(=O)CCc1c(C)[nH]c3ccccc13)CC2 [Example 186, (4-{5-Fluoro-2-[3-(2-methyl-1H-indol-3-yl)-propionyl]-1,2,3,4-tetrahydro-isoquinolin-8-yl}-3-methoxy-phenyl)-acetic acid]",8.58
14,"COc1cc(CC(=O)O)ccc1-c1ccc(F)c2c1CN(C(=O)CCn1ncc3cc(F)ccc31)CC2 [Example 190, (4-{5-Fluoro-2-[3-(5-fluoro-indazol-1-yl)-propionyl]-1,2,3,4-tetrahydro-isoquinolin-8-yl}-3-methoxy-phenyl)-acetic acid]",8.14
15,"COc1cc(CC(=O)O)ccc1-c1ccc(F)c2c1CN(C(=O)CCN1CCc3ccccc31)CC2 [Example 191, {4-[2-(3-2,3-Dihydro-indol-1-yl-propionyl)-5-fluoro-1,2,3,4-tetrahydro-isoquinolin-8-yl]-3-methoxy-phenyl}-acetic acid]",8.62
16,"COc1cc(CC(=O)O)ccc1-c1ccc(F)c2c1CN(C(=O)CCOc1ccc(F)cc1)CC2 [Example 192, (4-{5-Fluoro-2-[3-(4-fluoro-phenoxy)-propionyl]-1,2,3,4-tetrahydro-isoquinolin-8-yl}-3-methoxy-phenyl)-acetic acid]",9.16
